# Target: T1, ligand binding domain of human ROR gamma (Homo sapiens, UniProt P51449)
# T1 construct: NM_001001523; expressed in transfected cells; host or cells: HEK293T
# T1 sequence (P51449 247-497 isoform P51449-2): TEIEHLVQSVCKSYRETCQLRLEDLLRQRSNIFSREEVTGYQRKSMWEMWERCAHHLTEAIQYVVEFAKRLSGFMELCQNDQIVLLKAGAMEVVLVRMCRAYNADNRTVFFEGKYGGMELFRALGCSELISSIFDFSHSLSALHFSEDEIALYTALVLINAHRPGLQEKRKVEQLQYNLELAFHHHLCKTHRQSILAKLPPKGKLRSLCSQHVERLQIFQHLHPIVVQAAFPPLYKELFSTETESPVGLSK
# Assay: ROR gamma reporter gene assay (GAL4-RORγ LBD luciferase, Dual-Glo)
# Format: cell-based
# Conditions: HEK293T cells transfected with pM-ROR gamma, 8 concentrations 3.5 nM to 10.5 μM, 24 h incubation; read-out: result (pIC50, inhibition of RORγ transcriptional activity) (converted)
# In short: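 Inhibition of RORγ-driven transcription was measured in HEK293T cells expressing a GAL4 fusion of the human RORγ LBD (aa 247-497), with renilla luciferase as internal control. Cells in 10% charcoal-stripped serum received compound (3.5 nM–10.5 μM) for 24 h.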
row,Compound,IC50 [pM]
1,"N#Cc1ccc(CN(CC(=O)c2c(Cl)cncc2Cl)C(=O)c2cnn([C@H]3CC[C@H](C(=O)O)CC3)c2C(F)(F)F)cc1 [Example 171, trans-4-(4-((4-cyanophenyl)methyl-(2-(3,5-dichloropyridin-4-yl)-2-oxoethyl)carbamoyl)-5-(trifluoromethyl)pyrazol-1-yl)cyclohexane-1-carboxylic acid]",166000
2,"CC(=O)N1CC(N(CC(=O)c2c(Cl)cncc2Cl)C(=O)c2cnn([C@H]3CC[C@H](C(=O)O)CC3)c2C(F)(F)F)C1 [Example 172, trans-4-(4-((1-acetylazetidin-3-yl)-(2-(3,5-dichloropyridin-4-yl)-2-oxoethyl)carbamoyl)-5-(trifluoromethyl)pyrazol-1-yl)cyclohexane-1-carboxylic acid]",> 1e+07
3,"CC(C)(C)C(=O)N1CC(N(CC(=O)c2c(Cl)cncc2Cl)C(=O)c2cnn([C@H]3CC[C@H](C(=O)O)CC3)c2C(F)(F)F)C1 [Example 173, trans-4-(4-((2-(3,5-dichloropyridin-4-yl)-2-oxoethyl)-(1-(2,2-dimethylpropanoyl)azetidin-3-yl)carbamoyl)-5-(trifluoromethyl)pyrazol-1-yl)cyclohexane-1-carboxylic acid]",> 1e+07
4,"O=C(CN(C(=O)c1cnn([C@H]2CC[C@H](C(=O)O)CC2)c1C(F)(F)F)C1CCCCC1)c1c(Cl)cncc1Cl [Example 174, trans-4-(4-(cyclohexyl-(2-(3,5-dichloropyridin-4-yl)-2-oxoethyl)carbamoyl)-5-(trifluoromethyl)pyrazol-1-yl)cyclohexane-1-carboxylic acid]",661000
5,"O=C(CN(C(=O)c1cnn([C@H]2CC[C@H](C(=O)O)CC2)c1C(F)(F)F)C1CCC(F)(F)CC1)c1c(Cl)cncc1Cl [Example 175, trans-4-(4-((2-(3,5-dichloropyridin-4-yl)-2-oxoethyl)-(4,4-difluorocyclohexyl)carbamoyl)-5-(trifluoromethyl)pyrazol-1-yl)cyclohexane-1-carboxylic acid]",603000
6,"CC(C)(C)O[C@H]1C[C@H](N(CC(=O)c2c(Cl)cncc2Cl)C(=O)c2cnn([C@H]3CC[C@H](C(=O)O)CC3)c2C(F)(F)F)C1 [Example 176, trans-4-(4-((2-(3,5-dichloropyridin-4-yl)-2-oxoethyl)-(3-((2-methylpropan-2-yl)oxy)cyclobutyl)carbamoyl)-5-(trifluoromethyl)pyrazol-1-yl)cyclohexane-1-carboxylic acid]",2.57e+06
7,"O=C(CN(Cc1ccc(F)cc1)C(=O)c1cnn(C23CCC(C(=O)O)(CC2)C3)c1C(F)(F)F)c1c(Cl)cncc1Cl [Example 177, 4-(4-((2-(3,5-dichloropyridin-4-yl)-2-oxoethyl)-((4-fluorophenyl)methyl)carbamoyl)-5-(trifluoromethyl)pyrazol-1-yl)bicyclo[2.2.1]heptane-1-carboxylic acid]",141000
8,"C[C@]1(C(=O)O)CC[C@H](n2ncc(C(=O)N(CC(=O)c3c(Cl)cncc3Cl)Cc3cc(F)cc(F)c3)c2C(F)F)CC1 [Example 178, trans-4-(4-((2-(3,5-dichloropyridin-4-yl)-2-oxoethyl)-((3,5-difluorophenyl)methyl)carbamoyl)-5-(difluoromethyl)pyrazol-1-yl)-1-methylcyclohexane-1-carboxylic acid]",4.37e+06
9,"O=C(CN(Cc1cc(F)cc(F)c1)C(=O)c1cnn([C@H]2CC[C@H](C(=O)O)CC2)c1C(F)(F)F)c1c(F)cc(F)cc1Cl [Example 179, trans-4-(4-((2-(2-chloro-4,6-difluorophenyl)-2-oxoethyl)-((3,5-difluorophenyl)methyl)carbamoyl)-5-(trifluoromethyl)pyrazol-1-yl)cyclohexane-1-carboxylic acid]",52500
10,"O=C(CN(C(=O)c1cnn([C@H]2CC[C@H](C(=O)O)CC2)c1C(F)(F)F)C1Cc2ccccc2C1)c1c(Cl)cncc1Cl [Example 180, trans-4-(4-((2-(3,5-dichloropyridin-4-yl)-2-oxoethyl)-(2,3-dihydro-1H-inden-2-yl)carbamoyl)-5-(trifluoromethyl)pyrazol-1-yl)cyclohexane-1-carboxylic acid]",112000
11,"O=C(CN(C(=O)c1cnn([C@H]2CC[C@H](C(=O)O)CC2)c1C(F)(F)F)C1CCOCC1)c1c(Cl)cncc1Cl [Example 181, trans-4-(4-((2-(3,5-dichloropyridin-4-yl)-2-oxoethyl)-(oxan-4-yl)carbamoyl)-5-(trifluoromethyl)pyrazol-1-yl)cyclohexane-1-carboxylic acid]",> 1e+07
12,"O=C(CN(C(=O)c1cnn([C@H]2CC[C@H](C(=O)O)CC2)c1C(F)(F)F)C1CCC2(CC1)CC2)c1c(Cl)cncc1Cl [Example 182, trans-4-(4-((2-(3,5-dichloropyridin-4-yl)-2-oxoethyl)-spiro[2,5]octan-6-ylcarbamoyl)-5-(trifluoromethyl)pyrazol-1-yl)cyclohexane-1-carboxylic acid]",66100
13,"CC1(C)CC[C@H](N(CC(=O)c2c(Cl)cncc2Cl)C(=O)c2cnn([C@H]3CC[C@H](C(=O)O)CC3)c2C(F)(F)F)C1 [Example 183, trans-4-(4-((2-(3,5-dichloropyridin-4-yl)-2-oxoethyl)-((1S)-3,3-dimethylcyclopentyl)carbamoyl)-5-(trifluoromethyl)pyrazol-1-yl)cyclohexane-1-carboxylic acid]",174000
14,"CC1(C)CC[C@H](N(CC(=O)c2c(Cl)cncc2Cl)C(=O)c2cnn([C@H]3CC[C@H](C(=O)O)CC3)c2C(F)(F)F)C1 [Example 184, trans-4-(4-((2-(3,5-dichloropyridin-4-yl)-2-oxoethyl)-((1S)-3,3-dimethylcyclopentyl)carbamoyl)-5-(trifluoromethyl)pyrazol-1-yl)cyclohexane-1-carboxylic acid]",162000
15,"O=C(CN(C(=O)c1cnn([C@H]2CC[C@H](C(=O)O)CC2)c1C(F)(F)F)C1CCCC1)c1c(Cl)cncc1Cl [Example 185, trans-4-(4-(cyclopentyl-(2-(3,5-dichloropyridin-4-yl)-2-oxoethyl)carbamoyl)-5-(trifluoromethyl)pyrazol-1-yl)cyclohexane-1-carboxylic acid]",1.82e+06
16,"CC(C)(C)CN(CC(=O)c1c(Cl)cncc1Cl)C(=O)c1cnn([C@H]2CC[C@](C)(C(=O)O)CC2)c1C(F)(F)F [Example 186, trans-4-(4-((2-(3,5-dichloropyridin-4-yl)-2-oxoethyl)-(2,2-dimethylpropyl)carbamoyl)-5-(trifluoromethyl)pyrazol-1-yl)-1-methylcyclohexane-1-carboxylic acid]",26900
17,"CC(C1CCCC1)N(CC(=O)c1c(Cl)cncc1Cl)C(=O)c1cnn([C@H]2CC[C@H](C(=O)O)CC2)c1C(F)(F)F (stereo partly drawn) [Example 187, trans-4-(4-(1-cyclopentylethyl-(2-(3,5-dichloropyridin-4-yl)-2-oxoethyl)carbamoyl)-5-(trifluoromethyl)pyrazol-1-yl)cyclohexane-1-carboxylic acid]",224000
18,"COc1cncc(Cl)c1C(=O)CN(Cc1ccc(F)cc1)C(=O)c1cnn([C@H]2CC[C@H](C(=O)O)CC2)c1C(F)(F)F [Example 188, trans-4-(4-((2-(3-chloro-5-methoxypyridin-4-yl)-2-oxoethyl)-((4-fluorophenyl)methyl)carbamoyl)-5-(trifluoromethyl)pyrazol-1-yl)cyclohexane-1-carboxylic acid]",275000
19,"CC1(C)CCC(N(CC(=O)c2c(Cl)cc(Cl)cc2Cl)C(=O)c2cnn([C@H]3CC[C@H](C(=O)O)CC3)c2C(F)(F)F)CC1 [Example 189, trans-4-(4-((4,4-dimethylcyclohexyl)-(2-oxo-2-(2,4,6-trichlorophenyl)ethyl)carbamoyl)-5-(trifluoromethyl)pyrazol-1-yl)cyclohexane-1-carboxylic acid]",30200
20,"CC1(C)CCC(N(CC(=O)c2c(Cl)cc(F)cc2Cl)C(=O)c2cnn([C@H]3CC[C@](C)(C(=O)O)CC3)c2C(F)(F)F)CC1 [Example 190, trans-4-(4-((2-(2,6-dichloro-4-fluorophenyl)-2-oxoethyl)-(4,4-dimethylcyclohexyl)carbamoyl)-5-(trifluoromethyl)pyrazol-1-yl)-1-methylcyclohexane-1-carboxylic acid]",8320
21,"CC1(C)CCC(N(CC(=O)c2c(Cl)cc(Cl)cc2Cl)C(=O)c2cnn([C@H]3CC[C@](C)(C(=O)O)CC3)c2C(F)(F)F)CC1 [Example 191, trans-4-(4-((4,4-dimethylcyclohexyl)-(2-oxo-2-(2,4,6-trichlorophenyl)ethyl)carbamoyl)-5-(trifluoromethyl)pyrazol-1-yl)-1-methylcyclohexane-1-carboxylic acid]",8910
22,"CC12CCC(CN(CC(=O)c3c(Cl)cncc3Cl)C(=O)c3cnn([C@H]4CC[C@H](C(=O)O)CC4)c3C(F)(F)F)(CC1)C2 [Example 192, trans-4-(4-((2-(3,5-dichloropyridin-4-yl)-2-oxoethyl)-((1-methyl-4-bicyclo[2.2.1]heptanyl)methyl)carbamoyl)-5-(trifluoromethyl)pyrazol-1-yl)cyclohexane-1-carboxylic acid]",11700
23,"CC12CCC(CN(CC(=O)c3c(Cl)cc(F)cc3Cl)C(=O)c3cnn([C@H]4CC[C@H](C(=O)O)CC4)c3C(F)(F)F)(CC1)C2 [Example 193, trans-4-(4-((2-(2,6-dichloro-4-fluorophenyl)-2-oxoethyl)-((1-methyl-4-bicycio[2.2.1]heptanyl)methyl)carbamoyl)-5-(trifluoromethyl)pyrazol-1-yl)cyclohexane-1-carboxylic acid]",6460

# — US9365522B2, “Pyrazole amide derivative” (AMGEN INC., priority 2015, dated 2016)
